# Tests used:
# [1] = test system: small-diameter neurons of whole-mount DRG; assay: Whole-cell patch clamp recordings in whole mount DRGs ex vivo; assay type: cell-based, mouse; conditions: WT whole mount DRG; sPD-1 30 ng/ml, Nivolumab 300 ng/ml
# Procedure: Whole-cell patch clamp recordings in whole mount DRGs of mice ex vivo. L4-L5 DRGs were carefully removed 4 days after sham surgery or CCI surgery and placed in cold oxygenated ACSF. The connective tissue was gently removed under a microscope and the ganglia were digested with a mixture of 0.4 mg/mL trypsin (Sigma) and 1.0 mg/ml type-A collagenase (Sigma) for 30 min at 37° C. The intact ganglia were then incubated in ACSF oxygenated with 95% O2 and 5% CO2 at 28° C. for at least 1 h before transferring them to the recording chamber. DRG neurons were visualized with a 40× water-immersion objective using a BX51WI microscope (Olympus). Whole-cell current and voltage recordings were acquired with an Axon700B amplifier. Patch pipettes (4-7 MO) were pulled from borosilicate glass capillaries on P-97 puller. The recording chamber (300 μl) was continuously superfused (3-4 ml/min). Series resistance was compensated for (>80%), and leak subtraction was performed. The pipette solution contained (in mM): 140 KCl, 2 MgCl2, 10 Hepes, 2 Mg-ATP, pH 7.4. Osmolarity was adjusted to 290-300 mOsm. Data was acquired with a Digidata 1322A acquisition system (molecular devices) using pCLAMP 9.0 software. Signals were low-pass filtered at 5 kHz, sampled at 10 kHz and analyzed offline.
# [2] = test system: spinal wide dynamic range (WDR) neurons; assay: Extracellular recording of spinal WDR neurons in bone cancer rats in vivo; set-up: species or system rat; conditions: PD-L1 20 μg i.t., day 14; Nivolumab 10 μg i.t., day 8
# Procedure: Rat bone cancer pain model. Tumor cells were extracted from the ascetic fluid of rats that received Walker 256 rat mammary gland carcinoma cells, and suspension of 1×10^8/ml tumor cells in PBS was prepared. The inoculation was performed as previously described (Yang, Y, et al. J. Neurosci., 2015, 35:7950-7963). Briefly, rats were anesthetized with sodium pentobarbital (50 mg/kg, intraperitoneal). The right leg was shaved, and the skin was disinfected with iodine tincture and 75% ethanol. A 22-gauge needle was inserted at the site of the intercondylar eminence of the right tibia and was then replaced with a 10 μl microinjection syringe containing a 4 μl suspension of tumor cells (4×10^5). The contents of the syringe were slowly injected into the tibia cavity. To prevent leakage of cells outside the bone, the injection site was sealed with bone wax. […]
# Extracellular recording in rat spinal cord in vivo. […] The electrocardiogram was monitored, and the heart rate was maintained at 250-300/min. […] WDR neurons responding to innocuous stimulation and to a greater degree, noxious stimulation of the RF were analyzed in the present study. The recorded signals were amplified with a microelectrode amplifier (1800 A-M System, USA) and fed to computer via a CED 1401 interface for off-line analysis using the Spike 2 software (Cambridge Electronic Design, Cambridge, UK). […]
# [3] = test system: melanoma-bearing mice; assay: Mouse melanoma model: spontaneous pain, von Frey test, CPP; assay type: in vivo; conditions: MCI-4w
# [4] = test system: mice with LLC bone cancer; assay: Bone cancer pain model, Lewis lung cancer (LLC) cells in tibia; assay type: in vivo, mouse; conditions: Nivolumab 10 mg/kg IV on day 0, 3, 7, 10, 14
# From the text: (B) Cancer pain, as measured by mechanical pain sensitivity (paw withdrawal threshold) in von Frey test. (C) Mechanical allodynia (paw withdrawal frequency to a subthreshold filament, 0.4 g) in von Frey test. (D) Cold allodynia (lifting and licking time) in acetone test. (E) Heat hyperalgesia (paw withdrawal latency) in Hargreaves test. (B-E) n=9-11 mice in each group; Two-way ANOVA with Bonferroni's hoc-test; *P<0.05, compared with baseline; #P<0.05, compared with Saline group.
# [5] = test system: tibia bone of mice with LLC bone cancer; assay: X-ray bone destruction score in LLC bone cancer model; assay type: in vivo, mouse; conditions: Nivolumab 10 mg/kg IV; scores 8, 11 and 15 days after tumor inoculation
# Procedure: FIG. 27. Intravenous injections of Nivolumab protect against bone destruction after tumor inoculation. […] (B) X-ray images showing tibia bones 11 days after tumor inoculation. Arrows show bone destruction in saline-treated animals. (C) Bone destruction scores 8, 11, and 15 days after tumor inoculation. The scores were assessed as follows: Score 0, normal bone with no signs of destruction; Scorel, small radiolucent lesions indicative of bone destruction (one to three lesions); Score 2, increased number of lesions (three to six lesions) and loss of medullary bone; Score 3, loss of medullary bone and erosion of cortical bone; Score 4, full-thickness unicortical bone loss; Score 5, full-thickness bicortical bone loss and displaced skeletal fracture. n=9-11 in each group, male, 8-10 weeks; Two-way ANOVA with Bonferroni's hoc-test; *P<0.05, compared with baseline; #P<0.05, compared with Saline group; Scores n were shown by the arrows in B.
# Since cancers often become painful after metastasis to bone tissue, we examined the role of PD-1 in a bone cancer pain model following inoculation of Lewis lung cancer (LLC) cells into tibia bone cavity. […]
substance,measurement,setting,value
"Nivolumab: FDA-approved fully humanized IgG4 monoclonal anti-PD-1 antibody, Bristol-Myers Squibb",firing rate of action potentials,[1],increased the firing rate
same,activity of WDR neurons in bone cancer rats,[2],enhanced activities of WDR neurons
same,mechanical allodynia in melanoma-bearing mice,"[3]; sPD-1 5 μg i.pl., siRNA 2 μg peri-sciatic, Nivolumab 3-10 mg/kg i.v., RMP1-14 10 mg/kg i.v.","rapid, persistent, and dose-dependent mechanical allodynia"
same,spontaneous pain (licking/flinching) in melanoma-bearing mice,"[3]; sPD-1 5 μg i.pl., siRNA 2 μg peri-sciatic, Nivolumab 3-10 mg/kg i.v., RMP1-14 10 mg/kg i.v., SSG 5 μg i.pl.",marked spontaneous pain
same,mechanical allodynia in melanoma-bearing mice after local injection,[3]; intrathecal or intraplantar route,evoked mechanical allodynia
same,cancer pain days after each treatment,[4],sustained beneficial effects on cancer pain relief
same,tibia bone destruction during cancer progression (X-ray),[5],protected

# From patent US11007250B2, “Methods and kits for treating pain” (Duke University, priority 2017, dated 2021)
